From patent US7786046B2, “Benzoyl-substituted serineamides” (BASF Aktiengesellschaft, priority 2005, dated 2010) come the findings set out here.

In general, melting point refers to the temperature of the solid-liquid transition.

Consider `C=CC(O)C(NC(=O)c1ccc(F)cc1C(F)(F)F)C(=O)NC` (racemic) [Compound 3.3, N-(2-Hydroxy-1-methylcarbamoylbut-3-enyl)-4-fluoro-2-trifluoromethylbenzamide], for which the melting point amounted to 163 °C. With `CNC(=O)C(NC(=O)c1ccc(F)cc1C(F)(F)F)C(O)C(F)(F)F` (racemic) [Compound 3.1, 4-Fluoro-N-(3,3,3-trifluoro-2-hydroxy-1-methylcarbamoylpropyl)-2-trifluoromethylbenzamide], the melting point amounted to 212 °C. Under `CNC(=O)C(NC(=O)c1ccc(F)cc1C(F)(F)F)C(O)CO` (stereo not shown) [Compound 3.8, 2-(4-Fluoro-2-trifluoromethylbenzoylamino)-3,4-dihydroxy-N-methylbutyramide] stands 163 °C; under `CNC(=O)C(NC(=O)c1ccc(F)cc1C(F)(F)F)C(O)/C(Cl)=C/c1ccccc1` (racemic) [Compound 3.7, N-(3-Chloro-2-hydroxy-1-methylcarbamoyl-4-phenylbut-3-enyl)-4-fluoro-2-trifluoromethylbenzamide], 140 °C.
